Measurements from US20240245647A1, “ISOMEROHYDROLASE INHIBITOR FOR TREATMENT OF ATROPHIC FORM OF AGE-RELATED MACULAR DEGENERATION AND STARGARDT DISEASE” (The Trustees of Columbia University in the City of New York, priority 2021, published 2024).

Assays:
RPE65 [1] = target: T1, RPE65 (Mus musculus, UniProt Q91ZQ5); test: Chromophore regeneration after photobleach, HPLC retinoid profile; type: in vivo, BALB/cJ mice
T1 construct: from tissue; host or cells: eyes of living BALB/cJ mice
T1 sequence (Q91ZQ5 1-533): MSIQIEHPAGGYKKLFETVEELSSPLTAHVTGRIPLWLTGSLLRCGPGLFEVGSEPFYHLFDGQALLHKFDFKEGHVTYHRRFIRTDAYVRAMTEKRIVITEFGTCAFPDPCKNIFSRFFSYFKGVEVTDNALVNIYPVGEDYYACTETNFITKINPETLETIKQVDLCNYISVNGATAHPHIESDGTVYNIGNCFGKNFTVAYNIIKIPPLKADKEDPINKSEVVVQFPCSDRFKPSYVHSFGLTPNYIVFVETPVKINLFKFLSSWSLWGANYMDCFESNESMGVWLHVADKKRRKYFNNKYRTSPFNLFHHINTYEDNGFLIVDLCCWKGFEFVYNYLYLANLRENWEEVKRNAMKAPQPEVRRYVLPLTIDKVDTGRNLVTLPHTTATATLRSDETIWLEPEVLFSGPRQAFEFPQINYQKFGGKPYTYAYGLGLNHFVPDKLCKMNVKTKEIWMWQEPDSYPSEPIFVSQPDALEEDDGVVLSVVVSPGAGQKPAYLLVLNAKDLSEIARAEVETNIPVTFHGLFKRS
Description: FIG. 4. Systemic injection of inhibitor RPE65-61 delays chromophore regeneration in BALB/cJ mice. Dark-adapted mice were injected with varying amounts of RPE65-61, and subjected to light-adaptation under 5000 lx of fluorescent light for 30 min. The eyes were harvested for HPLC retinoid profiling after 30 min of dark-adaptation, to measure levels of (FIG. 4A) 11-cis-RAL, (FIG. 4B) all-trans-RAL, and (FIG. 4C) all-transretinyl ester. (FIG. 4D) schematic representation of experimental design for RPE65-61 in vivo. Student's t-test. *P<0.05, **<0.01 and ***<0.001. (Mean±SEM).
Dark-adapted or light-exposed mice were sacrificed, and their eyes enucleated under dim red light. The whole eyes were homogenized with a glass grinder in lysis buffer [10 mM NH2OH, 50% ethanol, […] 2-(N-morpholino) ethanesulfonic acid, pH 6.5], incubated for 1 hr, and retinoids were extracted with hexane.
The ability of RPE65-61 to inhibit RPE65 in vivo was also investigated by determining chromophore regeneration after bleaching with 5,000 lux fluorescent light for 30 min. (FIG. 4).

RPE65 [2] = target: T2, RPE65 (Gallus gallus, UniProt Q9YGX2); test: Liposome-based isomerase assay with purified RPE65; type: biochemical, chicken
T2 sequence (Q9YGX2 1-533): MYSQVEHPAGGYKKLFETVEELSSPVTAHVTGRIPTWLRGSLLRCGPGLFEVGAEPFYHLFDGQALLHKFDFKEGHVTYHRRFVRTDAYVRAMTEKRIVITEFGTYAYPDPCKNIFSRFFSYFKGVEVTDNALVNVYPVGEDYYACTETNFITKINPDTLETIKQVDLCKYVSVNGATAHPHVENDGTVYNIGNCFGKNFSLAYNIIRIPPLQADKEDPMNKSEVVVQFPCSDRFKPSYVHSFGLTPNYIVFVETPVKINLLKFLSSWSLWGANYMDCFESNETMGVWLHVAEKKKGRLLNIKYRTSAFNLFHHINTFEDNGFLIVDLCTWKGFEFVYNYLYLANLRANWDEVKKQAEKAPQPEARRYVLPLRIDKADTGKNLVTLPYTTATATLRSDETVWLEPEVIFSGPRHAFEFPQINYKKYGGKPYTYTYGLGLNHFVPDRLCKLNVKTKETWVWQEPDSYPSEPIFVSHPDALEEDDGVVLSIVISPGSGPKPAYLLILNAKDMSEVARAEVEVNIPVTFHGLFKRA
Description: FIG. 3. Uncompetitive inhibition of RPE65 isomerase by RPE65-61. All-trans-retinyl ester incorporated in liposomes was used as a substrate for purified RPE65 in the isomerase assay. (FIG. 3A) HPLC elution profile of the reaction products without inhibitor; (FIG. 3B) with 180 nM of RPE65-61; Peak 1, retinyl esters; Peak 2, 11-cis-retinol; Peak 3, all-trans-retinol. (FIG. 3C) Lineweaver-Burk plot of 11-cis-retinol generated by RPE65. Liposomes with increasing concentrations (S) of all-trans-retinyl palmitate were incubated with 25 μg of purified chicken RPE65 in the absence (♦) or in the presence of RPE65-61 (180 nM) (▪).
All-trans [11,12-^3H]-retinol (1 mCi/ml, 45.5 Ci/mmol, Perkin Elmer, Boston, MA) in N,N-dimethyl formamide (DMF) was used as the substrate for the isomerohydrolase assay. Bovine RPE microsomes were prepared as described previously. […] The upper layer was collected and the generated retinoids were analyzed by normal phase HPLC as described (Moiseyev, G. et al. 2003). […] The isomerohydrolase activity was calculated from the area of the 11-cis retinol peak using Radiomatic 610TR software (Perkin Elmer, Boston, MA) with synthetic 11-cis [^3H]-retinol as a standard. […] The retinoid profile after completion of the reaction was analyzed by HPLC where the peaks were identified by co-elution with retinoid standards. […]

## N=S(=O)(CCN)c1cccc(OCC2CCCCC2)c1 (racemic) [RPE65-61, (±)-(2-aminoethyl) (3-(cyclohexylmethoxy)phenyl) (imino)-λ^6-sulfanone]
RPE65 [1]; 0.5, 1 or 2 mg/kg injected, 5,000 lux 30 min
  chromophore regeneration after photobleach: delayed chromophore regeneration after photobleach in a dose-dependent manner
RPE65 [1]; mouse, in vivo
  inhibition of 11-cis-retinal regeneration after photobleaching compared with CU-239: higher potency
  retinyl ester levels in treated mice: accumulate higher levels of retinyl esters
RPE65 [2]; liposome-based assay with recombinant RPE65
  mode of RPE65 inhibition: uncompetitive inhibitor
RPE65 [2]; liposome-based assay, 180 nM inhibitor
  Ki: 150 nM
